In patent US20240415808A1, “Dosage Regimen for Fexuprazan Injection Composition” (Daewoong Pharmaceutical Co., Ltd., priority 2021, published 2024):
Several values for one entry are separate records, joined by “and”; a condition that tells them apart may be missing. Equal entries are not always repeated.

Key:
[1] = test system: acidity in the gastrointestinal tract; test: injection maintenance therapy test, acidity in the gastrointestinal tract; assay type: in vivo, human; conditions: healthy adults; for Fraction time pH ≥ 6 over 24 hours post-dose (duration %): 40 mg IV over 30 minutes then 4 mg/hr for 71.5 hours; for Fraction time pH ≥ 4 over 24 hours post-dose (duration %) / Mean pH / Median pH: 40 mg IV then 4 mg/hr for 71.5 hours
Experimental: In order to confirm changes in PD values according to fexuprazan injection maintenance therapy, the test was conducted on eight healthy adults between the ages of 19 and 50. To the test subjects, a total of 100 ml of a solution obtained by mixing 40 mg of a freeze-dried preparation (40 mg/vial) prepared in the same manner as that used in Experimental Example 6, and physiological saline was administered intravenously for 30 minutes. Subsequently, on the first day, a total of 1 L of a solution obtained by mixing 94 mg of freeze-dried formulation (40 mg/vial) and physiological saline was administered intravenously as a maintenance dose for 23.5 hours. On the second and third days, a total of 1 L of a solution obtained by mixing 96 mg of freeze-dried formulation (40 mg/vial) and physiological saline was administered intravenously for 24 hours. That is, as a maintenance dose, a total of 3 L of a solution of 286 mg of lyophilized formulation (40 mg/vial) mixed with physiological saline was administered intravenously for 71.5 hours at a rate of 4 mg/hr. The acidity in the gastrointestinal tract was tested on the first and third days, respectively, and the results are shown in Table 14 and FIG. 15 below.

[2] = test system: acidity (pH) in the gastrointestinal tract; test: multiple intravenous administration clinical trial (7 days), acidity (pH) in the gastrointestinal tract; assay type: in vivo, human; conditions: healthy adults; for Fraction time pH ≥ 4 over 24 hours post-dose (duration %) / Mean pH / Median pH: 7th day
Experimental: Subsequent to Experimental Example 4, in order to confirm the change in PD value during multiple administration of the compound of the present invention, the clinical trial was designed to be randomized, double-blind, placebo-controlled in healthy adults between the ages of 19 and 50.
A stabilizer (200 mg), a freeze-drying auxiliary agent (200 mg), and the previously prepared fexuprazan hydrochloride (40 mg based on fexuprazan weight) were dissolved in water for injection (4 mL), and the pH was adjusted to 4.0 by adding an appropriate amount of acid. The prepared solution was put into a vial and dried using a freeze-drying method to prepare a freeze-dried agent.
The freeze-dried composition prepared as above was used, but a total of 28 subject of […], 8, and 8 subjects each were enrolled for three dose groups (20 mg, 40 mg, and 80 mg) based on fexuprazan weight, and each group was randomly assigned to test or control groups in the order that they passed the screening criteria at a ratio of 3:1.
Dose groups 1 and 3 in Table 12 were administered once a day (every 24 hours) (FIG. 8), and dose group 2 was administered twice a day (every 12 hours) for 7 days (FIG. 9).
The acidity (pH) tests in the gastrointestinal tract were performed for 48 hours from the day before administration to 24 hours after the first administration. On the 7th day, it was administered for 24 hours after administration. The measured results are shown in Table 13 and FIGS. 10 to 14 below.

Question: Which results are given for `CNCc1cn(S(=O)(=O)c2cccc(F)c2)c(-c2ccc(F)cc2F)c1OC` [Fexuprazan, 1-(5-(2,4-difluorophenyl)-1-((3-fluorophenyl)sulfonyl)-4-methoxy-1H-pyrrol-3-yl)-N-methylmethanamine]?
Answer: Fraction time pH ≥ 6 over 24 hours post-dose (duration %) ([1]; Day 1): 65.40 ± 18.67%; Fraction time pH ≥ 6 over 24 hours post-dose (duration %) ([1]; Day 3): 76.33 (±15.98) % and 76.33 ± 15.98%; Fraction time pH ≥ 4 over 24 hours post-dose (duration %) ([1]; Day 1): 97.87 ± 1.43%; Mean pH ([1]; Day 1): 6.17 ± 0.36; Median pH ([1]; Day 1): 6.28 ± 0.32; Fraction time pH ≥ 4 over 24 hours post-dose (duration %) ([1]; Day 3): 99.85 ± 0.40%; Mean pH ([1]; Day 3): 6.39 ± 0.35; Median pH ([1]; Day 3): 6.44 ± 0.28; Fraction time pH ≥ 4 over 24 hours post-dose (duration %) ([2]; 20 mg IV q24h): 55.68 (±14.85) % and 55.68 ± 14.85%; Mean pH ([2]; 20 mg IV q24h): 4.28 ± 0.7; Median pH ([2]; 20 mg IV q24h): 4.29 ± 1.32; Fraction time pH ≥ 6 over 24 hours post-dose (duration %) ([2]; 20 mg IV q24h, 7th day (n = 6)): 25.29 ± 15.41%; Fraction time pH ≥ 4 over 24 hours post-dose (duration %) ([2]; 40 mg IV q12h): 99.85 ± 0.31%; Mean pH ([2]; 40 mg IV q12h): 6.34 ± 0.23; Median pH ([2]; 40 mg IV q12h): 6.33 ± 0.22; Fraction time pH ≥ 6 over 24 hours post-dose (duration %) ([2]; 40 mg IV q12h, 7th day (n = 5)): 74.77 (±13.39) % and 74.77 ± 13.39%; Fraction time pH ≥ 4 over 24 hours post-dose (duration %) ([2]; 80 mg IV q24h): 94.78 ± 8.49%; Mean pH ([2]; 80 mg IV q24h): 6.08 ± 0.5; Median pH ([2]; 80 mg IV q24h): 6.28 ± 0.27; Fraction time pH ≥ 6 over 24 hours post-dose (duration %) ([2]; 80 mg IV q24h, 7th day (n = 6)): 70.07% and 70.07 ± 18.09%
